According to publication PMC12274840 (The Journal of Biological Chemistry, 2025):
Values after ≈ are worked out from the molar mass of the structure shown. Like-named read-outs stand apart in the source and are kept apart here.

Columns and labels:
[1] = test system: E. coli KA797 cells carrying pUK21 vector without the β-lactamase gene; test: microbe, parasite or virus in culture; assay type: cell-based; settings: Escherichia coli
[2] = test system: E. coli KA797 cells carrying pUK21 with BlaC WT (Tat); test: microbe, parasite or virus in culture; assay type: cell-based; settings: Escherichia coli, antibiotic alone
[3] = test system: E. coli KA797 cells carrying pUK21 with CTX-M-14 WT (Tat); test: microbe, parasite or virus in culture; assay type: cell-based; settings: Escherichia coli, antibiotic alone
[4] = test system: E. coli KA797 cells carrying pUK21 with NmcA (pelB/Sec); test: microbe, parasite or virus in culture; assay type: cell-based; settings: Escherichia coli, antibiotic alone
[5] = test system: E. coli KA797 cells carrying BlaC position 105 library; assay type: cell-based, Escherichia coli; settings: ceftriaxone; for Fi CEF AVG: average of replicates; for Fi CEF 1: replicate 1
[6] = test system: E. coli KA797 cells carrying CTX-M-14 position 105 library; assay type: cell-based
[7] = test system: E. coli KA797 cells carrying NmcA position 105 library; assay type: cell-based
[8] = test system: E. coli KA797 cells carrying TEM-1 position 105 library; assay type: cell-based; settings: for Fi CEF AVG: average of replicates
[9] = test system: CC1(C)S[C@@H]2[C@H](NC(=O)C(C(=O)O)c3ccccc3)C(=O)N2[C@H]1C(=O)O; test: purified protein, by the assay type; settings: pH 6.4; 25.0 °C
[10] = test system: CC1(C)S[C@@H]2[C@H](NC(=O)[C@H](N)c3ccccc3)C(=O)N2[C@H]1C(=O)O; test: purified protein, by the assay type; settings: pH 6.4; 25.0 °C
[11] = test system: O=C(Cc1cccs1)N[C@@H]1C(=O)N2C(C(=O)O)=C(/C=C/c3ccc([N+](=O)[O-])cc3[N+](=O)[O-])CS[C@H]12; test: purified protein, by the assay type; settings: pH 6.4; 25.0 °C
[12] = test system: CC1(C)S[C@@H]2[C@H](NC(=O)C(C(=O)O)c3ccccc3)C(=O)N2[C@H]1C(=O)O; test: purified protein, by the assay type; settings: pH 6.4; 25.0 °C; remark: listed apart in the source

CO/N=C(\C(=O)N[C@@H]1C(=O)N2C(C(=O)O)=C(CSc3nc(=O)c(=O)[nH]n3C)CS[C@H]12)c1csc(N)n1 [ceftriaxone]
MIC [1]: 0.1 µg/mL (≈ 0.18 µM) | MIC [2]: 0.2 µg/mL (≈ 0.361 µM) | MIC [3]: 1600 µg/mL (≈ 2890 µM) | MIC [4]: 0.2 µg/mL (≈ 0.361 µM) | Fi CEF AVG ([5]; AA 105 Arg): 0.035 | Fi CEF 1 ([5]; AA 105 Arg): 0.040 | Fi CEF 2 ([5]; AA 105 Arg, replicate 2): 0.029 | Fi CEF AVG ([5]; AA 105 Cys): 0.035 | Fi CEF 1 ([5]; AA 105 Cys): 0.020 | Fi CEF 2 ([5]; AA 105 Cys, replicate 2): 0.049 | Fi CEF 2 ([5]; AA 105 Gly, replicate 2): -0.00224 | Fi CEF AVG ([5]; AA 105 His): 0.032 | Fi CEF 1 ([5]; AA 105 His): 0.007 | Fi CEF 2 ([5]; AA 105 His, replicate 2): 0.057 | Fi CEF AVG ([5]; AA 105 Ile (WT)): 0.000 | Fi CEF 1 ([5]; AA 105 Ile (WT)): 0.000 | Fi CEF 2 ([5]; AA 105 Ile (WT), replicate 2): 0.000 | Fi CEF AVG ([5]; AA 105 Leu): 0.017 | Fi CEF 1 ([5]; AA 105 Leu): 0.023 | Fi CEF 2 ([5]; AA 105 Leu, replicate 2): 0.011 | Fi CEF AVG ([5]; AA 105 Lys): -0.009 | Fi CEF 2 ([5]; AA 105 Lys, replicate 2): -0.009 | Fi CEF AVG ([5]; AA 105 Met): 0.036 | Fi CEF 1 ([5]; AA 105 Met): 0.064 | Fi CEF 2 ([5]; AA 105 Met, replicate 2): 0.008 | Fi CEF AVG ([5]; AA 105 Phe): 0.008 | Fi CEF 1 ([5]; AA 105 Phe): -0.000834 | Fi CEF 2 ([5]; AA 105 Phe, replicate 2): 0.017 | Fi CEF AVG ([5]; AA 105 Ser): -0.011 | Fi CEF 1 ([5]; AA 105 Ser): -0.00266 | Fi CEF AVG ([5]; AA 105 Trp): 0.038 | Fi CEF 1 ([5]; AA 105 Trp): 0.042 | Fi CEF 2 ([5]; AA 105 Trp, replicate 2): 0.034 | Fi CEF 1 ([5]; AA 105 Val): 0.004 | WT abs Fi 2 ([5]; WT (Ile 105) absolute fitness, replicate 2): -0.008 | Significance of average fitness ([6]; CTX-M-14 AA 105 Ala): - | Significance of average fitness ([6]; CTX-M-14 AA 105 Arg): - | Significance of average fitness ([6]; CTX-M-14 AA 105 Asn): - | Significance of average fitness ([6]; CTX-M-14 AA 105 Asp): - | Significance of average fitness ([6]; CTX-M-14 AA 105 Cys): - | Significance of average fitness ([6]; CTX-M-14 AA 105 Gln): - | Significance of average fitness ([6]; CTX-M-14 AA 105 Glu): - | Significance of average fitness ([6]; CTX-M-14 AA 105 Gly): - | Significance of average fitness ([6]; CTX-M-14 AA 105 His): - | Significance of average fitness ([6]; CTX-M-14 AA 105 Ile): - | Significance of average fitness ([6]; CTX-M-14 AA 105 Leu): - | Significance of average fitness ([6]; CTX-M-14 AA 105 Lys): - | Significance of average fitness ([6]; CTX-M-14 AA 105 Met): - | Significance of average fitness ([6]; CTX-M-14 AA 105 Phe): - | Significance of average fitness ([6]; CTX-M-14 AA 105 Pro): - | Significance of average fitness ([6]; CTX-M-14 AA 105 Ser): - | Significance of average fitness ([6]; CTX-M-14 AA 105 Thr): - | Significance of average fitness ([6]; CTX-M-14 AA 105 Trp): + | Significance of average fitness ([6]; CTX-M-14 AA 105 Val): - | WT abs Fi 1 (absolute fitness of wild type, Replicate 1) ([6]; CTX-M-14 WT (Tyr 105)): 0.241 | WT abs Fi 2 (absolute fitness of wild type, Replicate 2) ([6]; CTX-M-14 WT (Tyr 105)): 0.256 | Fi AVG (average fitness of replicates) ([7]; NmcA AA 105 Asp): 0.078 | Fi AVG (average fitness of replicates) ([7]; NmcA AA 105 Cys): 0.046 | Fi AVG (average fitness of replicates) ([7]; NmcA AA 105 Glu): 0.057 | Fi AVG (average fitness of replicates) ([7]; NmcA AA 105 Lys): 0.077 | Fi AVG (average fitness of replicates) ([7]; NmcA AA 105 Phe): 0.046 | Fi AVG (average fitness of replicates) ([7]; NmcA AA 105 Pro): 0.055 | Fi AVG (average fitness of replicates) ([7]; NmcA AA 105 Trp): 0.226 | Significance of average fitness ([7]; NmcA AA 105 Trp): + | WT abs Fi 1 (absolute fitness) ([7]; NmcA WT, replicate 1): 0.029 | WT abs Fi 2 (absolute fitness) ([7]; NmcA WT, replicate 2): -0.00378 | WT abs Fi 3 (absolute fitness) ([7]; NmcA WT, replicate 3): -0.101 | Fi CEF 2 ([8]; AA 105 Ala, replicate 2): -0.112 | Fi CEF 3 ([8]; AA 105 Ala, replicate 3): 0.013 | Fi CEF 2 ([8]; AA 105 Asn, replicate 2): -0.107 | Fi CEF 3 ([8]; AA 105 Asn, replicate 3): -0.034 | Fi CEF 1 ([8]; AA 105 Asp, replicate 1): 0.596 | Fi CEF AVG ([8]; AA 105 Cys): 0.087 | Fi CEF 1 ([8]; AA 105 Cys, replicate 1): 0.906 | Fi CEF AVG ([8]; AA 105 Gln): 0.078 | Fi CEF 1 ([8]; AA 105 Gln, replicate 1): 0.356 | Fi CEF 2 ([8]; AA 105 Gln, replicate 2): -0.028 | Fi CEF 3 ([8]; AA 105 Gln, replicate 3): -0.095 | Fi CEF 1 ([8]; AA 105 Glu, replicate 1): 0.340 | Fi CEF 2 ([8]; AA 105 Glu, replicate 2): -0.099 | Fi CEF AVG ([8]; AA 105 Gly): 0.067 | Fi CEF 1 ([8]; AA 105 Gly, replicate 1): 0.338 | Fi CEF 2 ([8]; AA 105 Gly, replicate 2): -0.077 | Fi CEF 3 ([8]; AA 105 Gly, replicate 3): -0.061 | Fi CEF AVG ([8]; AA 105 Leu): 0.072 | Fi CEF 1 ([8]; AA 105 Leu, replicate 1): 0.332 | Fi CEF 2 ([8]; AA 105 Leu, replicate 2): 0.047 | Fi CEF AVG ([8]; AA 105 Lys): 0.057 | Fi CEF 3 ([8]; AA 105 Lys, replicate 3): 0.102 | Fi CEF AVG ([8]; AA 105 Phe): 0.182 | Fi CEF 2 ([8]; AA 105 Phe, replicate 2): 0.022 | Fi CEF 3 ([8]; AA 105 Phe, replicate 3): 0.240 | Fi CEF AVG ([8]; AA 105 Pro): 0.130 | Fi CEF 1 ([8]; AA 105 Pro, replicate 1): 0.375 | Fi CEF 2 ([8]; AA 105 Pro, replicate 2): -0.060 | Fi CEF 3 ([8]; AA 105 Pro, replicate 3): 0.074 | Fi CEF AVG ([8]; AA 105 Ser): 0.105 | Fi CEF 3 ([8]; AA 105 Ser, replicate 3): 0.208 | Fi CEF AVG ([8]; AA 105 Trp): 0.125 | Fi CEF 1 ([8]; AA 105 Trp, replicate 1): 0.969 | Fi CEF 2 ([8]; AA 105 Tyr, replicate 2): 0.000 | Fi CEF 3 ([8]; AA 105 Tyr, replicate 3): 0.000 | WT abs Fi 1 ([8]; absolute fitness of TEM-1 WT, CEF, replicate 1): -0.283 | WT abs Fi 2 ([8]; absolute fitness of TEM-1 WT, CEF, replicate 2): 0.276 | WT abs Fi 3 ([8]; absolute fitness of TEM-1 WT, CEF, replicate 3): 0.176

(Escherichia coli)
Km [9]: 20 ± 2 µM | kcat [9]: 31 ± 2 s⁻¹ | kcat/Km [9]: 1.55e+06 ± 180000 M⁻¹ s⁻¹ | Km [10]: 76 ± 2 µM | kcat [10]: 103 ± 1 s⁻¹ | kcat/Km [10]: 1.36e+06 ± 80000 M⁻¹ s⁻¹ | Km [11]: 79 ± 1 µM | kcat [11]: 576 ± 5 s⁻¹ | kcat/Km [11]: 7.31e+06 ± 80000 M⁻¹ s⁻¹ | Km [12]: 10.0 ± 0.7 µM | kcat [12]: 92 ± 2 s⁻¹ | kcat/Km [12]: 9.15e+06 ± 660000 M⁻¹ s⁻¹
